{"source": "patent US12128029B2", "about": "“Treatment of idiopathic pulmonary fibrosis” (VICORE PHARMA AB, priority 2022, dated 2024)", "key": {"[1]": {"test_system": "patients with IPF", "conditions": "over the period of a year; cited from earlier work"}, "[2]": {"test": "Sensitivity of C21 and salts to light and water", "format": "physicochemical", "conditions": "C21 and salts thereof"}, "[3]": {"test_system": "model of obstructive lung disease (specifically COPD)", "conditions": "cited from earlier work"}, "[4]": {"test_system": "subjects with IPF", "test": "Phase II, multi-centre, open-label, single-arm trial of the safety, efficacy and pharmacokinetics of C21 in subjects with IPF", "conditions": "for mean change in FVC from baseline: C21 100 mg b.i.d. orally (sodium salt capsules), observed data, FIG. 1", "protocol": "The primary objective of the study is/was to investigate the safety of C21, 200 mg daily dose (100 mg b.i.d.) administered orally to subjects with IPF. The secondary objectives are/were to evaluate the effect on lung function decline of C21 and the pharmacokinetics of C21 at the same daily dose. Exploratory objectives include the investigation of a range of laboratory parameters as potential biomarkers of inflammation and fibrosis.\nThe primary endpoint of the trial is the nature and frequency of adverse events occurring over the trial period.\nSecondary endpoints included changes from baseline in: • FVC (defined as the maximum amount of air that can be forcibly exhaled from the lungs after fully inhaling) at Weeks 12, 24 and 36; • plasma concentration of C21 and derived PK parameters evaluated in a sub-set of subjects.\nC21 has been administered twice daily to the subjects for 36 weeks as follows: • morning dose: two 50 mg capsules (100 mg C21 or placebo) to be taken with a glass of water after minimum 2 hours fasting; and • afternoon/evening dose: two 50 mg capsules (100 mg C21 or placebo) to be taken with a glass of water after minimum 2 hours fasting. Subjects are required not to eat anything for 1 hour after taking the study drug.\nThe patients were enrolled to receive C21 (100 mg b.i.d.) for 36 weeks in total."}, "[5]": {"conditions": "interim analysis, 21 subjects, C21 100 mg b.i.d."}}, "data": [{"smiles": "COC(=O)c1ccc2c(c1)NC(=O)/C2=C(\\Nc1ccc(N(C)C(=O)CN2CCN(C)CC2)cc1)c1ccccc1", "note": "[nintedanib]", "values": [{"measurement": "reduction in the rate of decline in lung function (FVC measurements)", "setting": "[1]", "value": "approximately 50%"}]}, {"smiles": "Cc1ccc(=O)n(-c2ccccc2)c1", "note": "[pirfenidone]", "values": [{"measurement": "reduction in the rate of decline in lung function (FVC measurements)", "setting": "[1]", "value": "approximately 50%"}]}, {"smiles": "CCCCOC(=O)NS(=O)(=O)c1sc(CC(C)C)cc1-c1ccc(Cn2ccnc2)cc1", "note": "[C21, N-butyloxycarbonyl-3-(4-imidazol-1-ylmethylphenyl)-5-iso-butylthiophene-2-sulfonamide]", "values": [{"measurement": "sensitivity to the combined presence of light and water", "setting": "[2]", "value": "extreme sensitivity"}, {"measurement": "effect on cigarette smoke-induced emphysema", "setting": "[3]", "value": "prevented cigarette smoke-induced emphysema"}, {"measurement": "effect on lung functions", "setting": "[3]", "value": "improved lung functions"}, {"measurement": "mean change in FVC from baseline", "setting": "[4]; 24 weeks", "value": "+250 mL"}, {"measurement": "difference in mean FVC change versus expected mean decline in untreated patients", "setting": "[4]; 24 weeks, expected decline -120 mL, based on previously published IPF trials", "value": "+371 mL"}, {"measurement": "mean change in FVC from baseline", "setting": "[4]; 36 weeks", "value": "+750 mL"}, {"measurement": "difference in mean FVC change versus expected mean decline in untreated patients", "setting": "[4]; 36 weeks, expected decline -180 mL", "value": "+930 mL"}, {"measurement": "gastrointestinal signals", "setting": "[4]; [5]", "value": "no gastrointestinal signals"}, {"measurement": "overall safety profile", "setting": "[4]; [5]", "value": "no safety profile concerns"}, {"measurement": "related serious adverse events", "setting": "[4]; [5]", "value": "no related serious adverse events"}, {"measurement": "deaths in the ongoing trial", "setting": "[4]; reported to be due to COVID-19 and not related to C21", "value": 1}, {"measurement": "p value of slope (change in FVC scaled to 24 weeks, by visit, observed cases) versus expected mean in untreated patients", "setting": "[4]; week 28", "value": 0.012}, {"measurement": "p value of slope (change in FVC scaled to 24 weeks, by visit, observed cases) versus expected mean in untreated patients", "setting": "[4]; week 32", "value": 0.032}, {"measurement": "p value of slope (change in FVC scaled to 24 weeks, by visit, observed cases) versus expected mean in untreated patients", "setting": "[4]; week 36", "value": 0.016}]}]}
